Target: T1, human TLR7 (Homo sapiens, UniProt Q9NYK1)
T1 construct: host or cells: HEK293 (HEK-Blue hTLR7)
T1 sequence (Q9NYK1 27-1049): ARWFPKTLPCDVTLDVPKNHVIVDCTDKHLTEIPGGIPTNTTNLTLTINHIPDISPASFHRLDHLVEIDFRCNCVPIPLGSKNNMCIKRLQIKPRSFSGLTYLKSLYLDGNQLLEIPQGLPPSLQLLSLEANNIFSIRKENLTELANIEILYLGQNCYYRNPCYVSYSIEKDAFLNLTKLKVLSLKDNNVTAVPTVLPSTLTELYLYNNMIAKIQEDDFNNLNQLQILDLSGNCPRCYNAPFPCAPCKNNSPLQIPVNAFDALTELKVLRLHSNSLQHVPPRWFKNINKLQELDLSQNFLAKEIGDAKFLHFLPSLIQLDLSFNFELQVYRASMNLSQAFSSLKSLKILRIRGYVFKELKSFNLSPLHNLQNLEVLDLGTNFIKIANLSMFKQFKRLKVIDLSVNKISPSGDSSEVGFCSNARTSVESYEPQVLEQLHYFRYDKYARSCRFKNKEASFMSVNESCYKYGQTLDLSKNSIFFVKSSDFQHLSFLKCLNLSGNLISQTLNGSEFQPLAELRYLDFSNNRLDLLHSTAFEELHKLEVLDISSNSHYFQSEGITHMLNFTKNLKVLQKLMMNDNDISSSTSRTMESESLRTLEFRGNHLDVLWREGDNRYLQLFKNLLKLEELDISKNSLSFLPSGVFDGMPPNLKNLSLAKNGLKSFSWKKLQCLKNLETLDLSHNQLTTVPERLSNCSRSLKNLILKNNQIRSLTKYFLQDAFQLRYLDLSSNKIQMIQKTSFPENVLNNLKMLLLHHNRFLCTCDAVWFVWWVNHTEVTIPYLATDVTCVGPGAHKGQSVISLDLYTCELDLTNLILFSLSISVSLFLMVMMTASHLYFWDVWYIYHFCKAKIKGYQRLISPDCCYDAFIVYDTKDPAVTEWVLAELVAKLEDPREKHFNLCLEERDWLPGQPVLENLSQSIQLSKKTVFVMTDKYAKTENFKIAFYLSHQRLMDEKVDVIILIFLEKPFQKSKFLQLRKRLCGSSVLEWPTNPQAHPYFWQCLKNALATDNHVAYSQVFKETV
Test: HEK293-Blue-hTLR-7 cells assay (SEAP reporter, R848 stimulation)
Assay type: cell-based
Conditions: HEK293-Blue-hTLR7 cells, R848, 20 hrs; read-out: HEK/hTLR7 IC50
Method in brief: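 Stable HEK293-Blue-hTLR7 cells (NF-κB/AP-1-driven SEAP reporter) were co-incubated with serially diluted compound (1% DMSO final) and R848 for 20 hrs at 37 °C. Supernatant SEAP was developed with QUANTI-Blue substrate for 2 hrs at 37 °C and absorbance read at 620–655 nm; antagonism seen as reduced reporter signal.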

Row | SMILES | IC50
1 | C[C@H]1CN(c2ccnc3c2cnn3C)Cc2ccc(N3C[C@@H](N)[C@H](O)C3)cc21 [Example 46, trans-4-amino-1-[(4R)-4-methyl-2-(1-methylpyrazolo[3,4-b]pyridin-4-yl)-3,4-dihydro-1H-isoquinolin-6-yl]pyrrolidin-3-ol] | 10 nM
2 | C[C@H]1CN(c2ccnc3c2cnn3C)Cc2ccc(N3CCC(O)(CN(C)C)CC3)cc21 [Example 13, 4-[(dimethylamino)methyl]-1-[(4R)-4-methyl-2-(1-methylpyrazolo[3,4-b]pyridin-4-yl)-3,4-dihydro-1H-isoquinolin-6-yl]piperidin-4-ol] | 7 nM
3 | Cc1cc(N2Cc3ccc(OC[C@@H]4CNCCN4)cc3[C@@H](C)C2)c2cnn(C)c2n1 [Example 31, (4R)-2-(1,6-dimethylpyrazolo[3,4-b]pyridin-4-yl)-4-methyl-6-[[(2S)-piperazin-2-yl]methoxy]-3,4-dihydro-1H-isoquinoline] | 24 nM
4 | C[C@H]1CN(c2ccnc3c2cnn3C)Cc2ccc(N3CCN[C@@H](CO)C3)cc21 [Example 50, [(2R)-4-[(4R)-4-methyl-2-(1-methylpyrazolo[3,4-b]pyridin-4-yl)-3,4-dihydro-1H-isoquinolin-6-yl]piperazin-2-yl]methanol] | 10 nM
5 | C[C@H]1CN(c2ccnc3c2cnn3C)Cc2ccc(OC[C@@H]3CNCCN3)cc21 [Example 19, (4R)-4-methyl-2-(1-methylpyrazolo[3,4-b]pyridin-4-yl)-6-[[(2S)-piperazin-2-yl]methoxy]-3,4-dihydro-1H-isoquinoline] | 8 nM
6 | Cc1cc(N2Cc3ccc(OC4CCNCC4)nc3[C@@H](C)C2)c2cnn(C)c2n1 [Example 64, (8S)-6-(1,6-dimethylpyrazolo[3,4-b]pyridin-4-yl)-8-methyl-2-(4-piperidyloxy)-7,8-dihydro-5H-1,6-naphthyridine] | 5 nM

Continued, values first:

Row | IC50 | SMILES
7 | 2 nM | Cc1cc(N2Cc3ccc(N4CCC(C)(N)CC4)nc3[C@@H](C)C2)c2cnn(C)c2n1 [Example 59, 4-methyl-1-[(8S)-6-(1,6-dimethylpyrazolo[3,4-b]pyridin-4-yl)-8-methyl-7,8-dihydro-5H-1,6-naphthyridin-2-yl]piperidin-4-amine]
8 | 8 nM | Cc1cc(N2Cc3ccc(N4CCC(O)(CN(C)C)CC4)cc3[C@@H](C)C2)c2cnn(C)c2n1 [Example 14, 4-[(dimethylamino)methyl]-1-[(4R)-2-(1,6-dimethylpyrazolo[3,4-b]pyridin-4-yl)-4-methyl-3,4-dihydro-1H-isoquinolin-6-yl]piperidin-4-ol]
9 | 2 nM | Cc1cc(N2Cc3ccc(N4CCC(N)CC4)nc3[C@@H](C)C2)c2cnn(C)c2n1 [Example 58, 1-[(8S)-6-(1,6-dimethylpyrazolo[3,4-b]pyridin-4-yl)-8-methyl-7,8-dihydro-5H-1,6-naphthyridin-2-yl]piperidin-4-amine]

From patent US20240317735A1, “HYDROISOQUINOLINE OR HYDRONAPHTHYRIDINE COMPOUNDS FOR THE TREATMENT OF AUTOIMMUNE DISEASE” (Hoffmann-La Roche Inc., priority 2020, published 2024)
